Results as given in patent EP4506341A1, “TISSUE REGENERATION APPROACHES” (ZeCardio Therapeutics SL, priority 2023, dated 2025).

Assays:
H9C2 cells = assay: MTT proliferation assay in Tob1 expressing (control) H9C2 cells; format: cell-based, rat; conditions: for H9C2 % Proliferation (normalized to control): 4 microMolar, MTT assay after 144 hours, increase above control values; for EC50 in H9C2 cells lower than EC50 in Tob1 KO H9C2 cells (selectivity for Tob1): H9C2 control vs Tob1 KO H9C2 cells, MTT; for EC50: Rattus norvegicus, H9C2 control cells, proliferation by MTT, 144 hours, 1,28 nM to 20 µM
Procedure: (§1) 3-(4,5-dimethylthiazol-2-yl)-2,5-diphenyltetrazolium bromide, MTT (Sigma, M5655-500MG) assay was used as a surrogate to evaluate cell number and cell proliferation in H9C2 and MCF-7 cells. MTT is a colorimetric assay that measures cell metabolic activity in viable cells, resulting from the activity of mitochondrial dehydrogenases which cleave the tetrazolium ring of the yellow tetrazolium salt MTT, yielding formazan crystals. The protocol was designed to align Tob1 peak decrease in mRNA expression levels (48-96 hours post-transfection) with the period of exponential growth of the cells (24-72 hours post-replating).
MCF-7 cells and H9C2 cells were seeded at 100,000 cells/well in 24-well in DMEM + 10% FBS plates to reach 80-90% at time of transfection. MCF-7 and H9C2 cells were transfected 24 hours post-plating with Silencer® Select siRNAs to knock down Tob1. 48 hours post-transfection, cells were lifted and plated at 10000 (MCF-7) and 8000 cells/well (H9C2) in 96-well plates and grown for 144 hours. At day 6 (144 hours), 0,5 mg/ml MTT was added and incubated for 3 hours, producing formazan crystals that were solubilized with SDS 20%+ HCl 0.02N. 24 hours later, absorbance was measured at 590 nm with the spectrophotometer FLUOstar Omega plate reader (BMG LabTech).
(§2) Both Tob1 expressing and Tob1 knockout H9C2 cells were seeded at 8000 cells/well in 96-well plates. 48 hours later, cells were treated with 1.28 nM; 6.4 nM; 32 nM, 160nM, 800 nM, 4 µM and 20 µM ZXR-807, ZXR-810; ZXR-081 and ZXR-090 and cell proliferation was measured 144 hours post-treatment using the MTT assay as described above.
Once lead compounds were selected, their efficacy, potency and selectivity at promoting proliferative responses, were evaluated in vitro in rat cardiomyoblasts (H9C2 cells) using MTT assay. H9C2 cells were treated with vehicle 0,3% DMSO and increasing concentrations of Tob1 inhibitors: ZXR-807, ZXR-810, ZXR-081 and ZXR-090, (1,28 nM to 20 µM), followed by the assessment of proliferation, using the MTT assay, after cells were left to grow for 144 hours (6 Days).

Tob1 KO H9C2 cells = assay: MTT proliferation assay in Tob1 knockout H9C2 cells; format: cell-based; conditions: Rattus norvegicus; Tob1 depleted (KO) H9C2 cells; proliferation by MTT, 144 hours
Procedure: 100.000 H9C2 cells were plated in a 24 well plate day before transfection with lipofectamine CRISPRMAX™ (Thermofisher, CMAX00001), to obtain a 70% of confluence. The CRISPRMAX™ assay was performed following the manufacturer's instructions. Briefly Cas9 nuclease/gRNA RNP complexes were prepared by combining the following components , 3,85 µ! of 2 µM Alt-R S.p. Cas9 Nuclease v3 (1081059, IDT)1; 2,25 µ! of 2 µM sgRNAs (Tob1 sgRNA1: […] (SEQ ID NO: 3) and Tob1 sgRNA2: […] (SEQ ID NO: 4), negative control: GCACUACCAGAGCUAA (SEQ ID NO: 5), Synthego), 2,5 µ! Cas9 plus reagent in 16,65 µl Opti-MEM™(Gibco™; Life Technologies, Grand Island, NY, USA) in tube 1 and 1,5 µl lipofectamine CRISPRMAX™ in 25 µ! in Opti-MEM™ in tube 2. The Cas9/sgRNA ribonucleoprotein (RNP) complex was obtained by incubating the mix of tub1 and 2 for 10 minutes at room temperature. 50 µL of the RNP complex was added to cells in 450 µL of fresh high glucose DMEM (ATCC, 30-2002), supplemented with 10 % FBS and without antibiotics and cells were incubated with the RNP complex for 48 h at 37 °C.
as §1
MCF-7 cells and H9C2 cells were seeded at 100,000 cells/well in 24-well in DMEM + 10% FBS plates to reach 80-90% at time of transfection. MCF-7 and H9C2 cells were transfected 24 hours post-plating with Silencer® Select siRNAs to knock down Tob1. 48 hours post-transfection, cells were lifted and plated at 10000 (MCF-7) and 8000 cells/well (H9C2) in 96-well plates and grown for 144 hours. […] 24 hours later, absorbance was measured at 590 nm with the spectrophotometer FLUOstar Omega plate reader (BMG LabTech).
as §2
Tob1 inhibitors selectivity was assessed by comparing dose-responses of ZXR-807, ZXR-810, ZXR-081 and ZXR-090 in H9C2 control cells and H9C2 Tob1 KO cells where Tob1 was depleted by CRISPR/Cas9 technology. […]

Cdk1 = assay: Real time PCR of proliferation marker gene Cdk1 in H9C2 cells; format: cell-based, rat; conditions: 100 nM in H9C2 cells; for Cdk1 mRNA expression increase: normalized to vehicle-treated cells
Procedure: (§3) In order to evaluate 1) efficiency of Tob1 knockdown in MCF-7 and H9C2 cells and 2) expression levels of proliferation markers (Pcna, Cdk1 and Ccnb1) in H9C2 cells treated with the compounds of the invention, H9C2 cells were harvested by trypsinization and centrifuged at 300 x g for 5 min. Total mRNA was isolated using the Maxwell 16 LEV simplyRNA Cells Kit or Tissue Kit (Promega, Madison, WI) following the manufacturer's instructions. Nanodrop ND-1000 Spectrophotometer (Thermo Fisher Scientific, Waltham, MA) was used to quantity the amount of RNA extracted. cDNA synthesis was performed from 300 ng of total RNA with the SuperScript IV First-Strand Synthesis System (Thermo Fisher Scientific, Waltham, MA).
(§4) Real-time PCR was conducted using LightCycler 480 SYBR Green I Master on a LightCycler 480 thermal cycler (Roche, Basel, Switzerland). The expression levels of the indicated genes were calculated by the conventional 2^-DDCt method, with normalization to housekeeping gene glyceraldehyde-3-phosphate dehydrogenase (GAPDH).

hiPSC cardiomyocytes [1] = assay: CellTiter-Glo proliferation assay in hiPSC-CMs; format: cell-based, Human; conditions: 8nM
Procedure: Human Induced pluripotent stem-cell derived (iPS-CMs) cardiomyocytes (iCell® Cardiomyocytes, Cat. No. 11713) were purchased from FUJIFILM Cellular Dynamics. hiPSC Cardiomyocytes were seeded into 96 well plates coated with 0,1% gelatin (STEMCELL tech, 07903) with iCell Cardiomyocytes plating medium (Fujifilm, M1001). After 48 hours, the medium was changed to iCell Cardiomyocytes maintenance medium (Fujifilm, M1003) and cells were cultured for 2 weeks with media replacement every 48-72 hours. Cells were maintained in a humidified incubator (Thermo Scientific,HERACELL 150i) in a 95% air 5% CO2 environment at 37 °C
CellTitler-Glo® (Promega, G7570) was used to measure the activity of the compounds of the invention in triggering proliferation in hiPSC-CMs. The CellTiter-Glo® Luminescent Cell Viability Assay, similar to the MTT assay but with higher sensitivity, determines the number of metabolically active and viable cells, and is based on the quantification of ATP levels in the cells.
hiPSC-CMs were seeded at 7000 cells/well in 96-well plates and treated with the compounds of the invention at 8; 40 and 200nM in a 0.3% DMSO containing iCell Cardiomyocyte medium and a control treatment or vehicle with 0.3% DMSO in iCell cardiomyocyte medium. hiPSC-CMs proliferation was measured after 144h (6 days) , and 336 (14 days) of treatment. At each time point, 100 µL of CellTiter Glo (ratio 1:1 CellTiter Glo: cell culture medium ) was added to each well containing 100 µL iCell Cardiomyocyte medium, following the manufacturer's instructions. Luminescence was read in Varioskan (Thermo Fisher Scientific), 30 minutes after adding the reagent.

Ki67 = assay: Nuclear Ki67 immunostaining in hiPSC-CMs after migration assay; format: cell-based, Human; conditions: 8 nM, 144 hrs, hiPSC cardiomyocytes
Procedure: (§5) hiPSC-CMs cells were seeded at 25,000 cells per well in 96 wells plates. 168 hours after seeding, cells were scraped with a 200 µL tip and treated with 8, 40 and 200nM ZXR-807, ZXR-810, ZXR-081 and ZXR-090. Plates were imaged with an inverted microscope (Leica, DMI6000B) right after generating the wound (0 h) and 144 hours post-scraping.
Following the migration assay, the medium was aspirated from the 96-well plates, and cells were washed twice with phosphate buffered saline solution (PBS) 1x (Fisher bioreagents, BP399-4). Cells were fixed with 4% paraformaldehyde (Sigma, 158127) for 10 minutes at room temperature and washed 3 times with PBS 1x. Cells were permeabilized with Triton™ X-100, 0.03% (Merck, T8787) and blocked with 0.5% Goat serum (ThermoFisher, 16210064) in PBS 1x, during 1 hour at room temperature. The primary antibodies Ki67 rabbit antibody 1/100 (Santacruz, sc-23900), and cardiac Troponin (cTnT mouse antibody 1/100 (ThermoFisher, MA5-12960) were diluted in the following buffer: Triton™ X-100 0.03% and 1% Bovine serum albumin (BSA) 10% (nzytech, MB04602) and PBS 1x. hiPSC-CMs were incubated with the primary antibodies overnight at 4°C, washed three times with PBS 1x and incubated with the secondary antibodies goat anti-mouse or anti -rabbit coupled to Alexa fluorescent dyes (company). DAPI 1/1000 (Merck, D9542-5MG) was incubated for 20 min at room temperature to visualize nuclei. Cells were washed out 3x with PBS and kept in PBS at 4°C.
Preparations were examined on a fluorescent inverted microscope Leica, DMI6000B using 20x dry objectives from Leica. Images were analyzed with the open source image processing package Fiji to quantify Nuclear Ki67 fluorescent intensity and cellular cardiac troponin T (cTnT) normalized to the number of nuclei in the field of view

hiPSC cardiomyocytes [2] = assay: Cell migration (wound healing) assay in hiPSC-CMs; format: cell-based, Human; conditions: 8 nM, 144 hours
Procedure: as §5
All images were analyzed using the Fiji software (Schindelin et al., 2012) and the amount of cellular migration was determined by calculating the wound area at 0h and 28 hours or 144 hours and normalized to control vehicle-treated cells (0,3% DMSO).

Ccnb1 = assay: Real time PCR of proliferation marker gene Ccnb1 in H9C2 cells; format: cell-based, rat; conditions: 100 nM in H9C2 cells
Procedure: as §3, §4

Compound | H9C2 % Proliferation (normalized to control) (H9C2 cells) | EC50 in H9C2 cells lower than EC50 in Tob1 KO H9C2 cells (selectivity for Tob1) (H9C2 cells) | EC50 (Tob1 KO H9C2 cells) | Cdk1 mRNA expression increase (Cdk1) | increase of proliferation rate of hiPSC cardiomyocytes (hiPSC cardiomyocytes [1]; 144 hours (6 days)) | time course of effect on proliferation increase (in words) (hiPSC cardiomyocytes [1]; peaking at 144 hours and disappearing by 336 hours) | nuclear Ki67 expression away from the scratch (Ki67) | nuclear Ki67 signal intensity close to the scratch (Ki67) | cell migration of hiPSC-CMs (in words) (hiPSC cardiomyocytes [2]) | EC50 (H9C2 cells) | Ccnb1 expression (in words) (Ccnb1) | transcriptional activation of Cdk1 (in words) (Cdk1) | increase of proliferation rate of hiPSC cardiomyocytes (hiPSC cardiomyocytes [1]; 336 hours (14 days))
Cl.N[C@H]1C[C@@H](C(=O)N2CCOCC2)[C@H](c2ccc(Cl)cc2)C1 (relative stereo) [ZXR-081, rel-[(1R,2R,4R)-4-amino-2-(4-chlorophenyl)cyclopentyl]-morpholino-methanone hydrochloride] | 36,6% | < 60,000 | 177 nM | about 3 fold | 20-28% | transitory effect | increased | significantly increased | activate cell migration |  |  |  | 
CC(=O)N[C@H]1C[C@@H](C(=O)N2CCOCC2)[C@H](c2ccc(Cl)cc2)C1 (relative stereo) [ZXR-090, rel-N-[(1R,3R,4R)-3-(4-chlorophenyl)-4-(morpholine-4-carbonyl)cyclopentyl]acetamide] | 26,6% | 200-300 | 62.8 nM | about 3 fold |  |  |  |  | activate cell migration | 0.128 nM | more moderately increased |  | 
N[C@H]1C[C@@H](C(=O)N2CCSCC2)[C@H](c2ccc(Cl)cc2)C1 (relative stereo) [ZXR-807, rel-[(1R,2R,4R)-4-amino-2-(4-chlorophenyl)cyclopentyl]-thiomorpholino-methanone] | 27,4% | < 60,000 | 82.8 nM |  | 20-28% |  | increased |  | activate cell migration |  | more moderately increased | promote the transcriptional activation | 40%
CC(C)N(C)C(=O)[C@@H]1C[C@H](N)C[C@H]1c1ccc(Cl)cc1 (relative stereo) [ZXR-810, rel(1R,2R,4R)-4-amino-2-(4-chlorophenyl)-N-isopropyl-N-methyl-cyclopentanecarboxamide] | 26.5% | 200-300 | 62.8 nM |  | 20-28% |  | increased |  | activate cell migration | 0.62 nM | more moderately increased | promote the transcriptional activation | 40%
